We go through one molecule from ChEMBL document CHEMBL6071152, “Design, synthesis, and biological evaluation of oridonin derivatives as novel NLRP3 inflammasome inhibitors for the treatment of acute lung injury” (Eur J Med Chem, 2024).

Calls of active or inactive are those of the source. The calls are words filed in the database; no cut-off is given here.

Experiment [1] deals with NACHT, LRR and PYD domains-containing protein 3 (Mus musculus) (UniProt Q8R4B8). Kind of experiment: Inhibition of NLRP3 inflammasome priming in ICR mouse BMDM assessed as inhibition of pro-caspase-1 protein expression in cell lysate at 1 uM treated for 3 hrs with LPS followed by incubation with compound for 1 hr and later stimulated with MSU for 4 hrs by western blot analysis. Conditions: time 5.0 hrs. It is filed as subcellular. A general note: In western blotting, separated proteins are transferred to a membrane and probed.

Experiment [2] deals with Mus musculus. Kind of experiment: Anti-inflammatory activity against LPS-stimulated acute lung injury C57BL/6 mouse model assessed as decrease in IL-1 beta mRNA expression in right lung at 0.1 to 1 mg/kg, ip treated for 3 days and on third day administered with LPS at 30 mins post-compound challenge and measured after 12 hrs by RT-qPCR analysis. Particulars: dose 0.1-1 mg/kg, time 3.5 day. In kind it is functional, organism-based.

The target in experiment [3] is NACHT, LRR and PYD domains-containing protein 3 (Mus musculus) (UniProt Q8R4B8). Kind of experiment: Inhibition of NLRP3 inflammasome priming in ICR mouse BMDM assessed as inhibition of pro-caspase-1 protein expression in cell lysate at 1 uM treated for 3 hrs with LPS followed by incubation with compound for 1 hr and later stimulated with ATP for 0.5 hrs by western blot analysis. In kind it is subcellular. Particulars: time 1.5 hrs.

Experiment [4] has as its target NLR family CARD domain-containing protein 4 (Mus musculus) (UniProt Q3UP24). Nature of the experiment: Inhibition of NLRC4 inflammasome activation in ICR mouse BMDM assessed as inhibition of FLA-ST-stimulated IL-1 beta expression in cell supernatant at 1 uM treated for 3 hrs with LPS followed by incubation with compound for 1 hr and later stimulated with FLA-ST for 2 hrs by western blot analysis. In kind it is cell-based.

Experiment [5] deals with NACHT, LRR and PYD domains-containing protein 3 (Mus musculus) (UniProt Q8R4B8). Kind of experiment: Inhibition of NLRP3 inflammasome activation in ICR mouse BMDM assessed as inhibition of LPS/MSU-stimulated IL-1 beta secretion in cell supernatant at 1 uM treated for 3 hrs with LPS followed by incubation with compound for 1 hr and later stimulated with MSU for 4 hrs by ELISA. In kind it is cell-based. Particulars: time 5.0 hrs. For orientation: In an ELISA, binding on a coated surface is turned into a signal by an enzyme label.

In experiment [6] the test system is Mus musculus. Nature of the experiment: Anti-inflammatory activity against LPS-stimulated acute lung injury C57BL/6 mouse model assessed as decrease in alveolar dilation in right lung at 1 to 10 mg/kg, ip treated for 3 days and on third day administered with LPS at 30 mins post-compound challenge and measured after 12 hrs by Hematoxylin-Eosin staining analysis. It is filed as functional, organism-based. Conditions: dose 1-10 mg/kg, time 3.5 day.

The target in experiment [7] is NACHT, LRR and PYD domains-containing protein 3 (Mus musculus) (UniProt Q8R4B8). Nature of the experiment: Inhibition of NLRP3 inflammasome activation in ICR mouse BMDM assessed as inhibition of LPS/nigericin-stimulated IL-1 beta secretion in cell supernatant at 1 uM treated for 3 hrs with LPS followed by incubation with compound for 1 hr and later stimulated with nigericin for 0.5 hrs by ELISA. It is filed as cell-based. Conditions: time 1.5 hrs.

Experiment [8] concerns Mus musculus. Nature of the experiment: Anti-inflammatory activity against LPS-stimulated acute lung injury C57BL/6 mouse model assessed as decrease in inflammatory cell infiltration in right lung at 1 to 10 mg/kg, ip treated for 3 days and on third day administered with LPS at 30 mins post-compound challenge and measured after 12 hrs by Hematoxylin-Eosin staining analysis. In kind it is functional, organism-based. Particulars: dose 1-10 mg/kg, time 3.5 day.

Experiment [9] concerns the target NACHT, LRR and PYD domains-containing protein 3 (Mus musculus) (UniProt Q8R4B8). Kind of experiment: Inhibition of NLRP3 inflammasome activation in ICR mouse BMDM assessed as inhibition of LPS/ATP-stimulated IL-1 beta expression in cell supernatant treated for 3 hrs with LPS followed by incubation with compound for 1 hr and later stimulated with ATP for 0.5 hrs by western blot analysis. Conditions: dose 0.2-5 µM, time 1.5 hrs. It is filed as cell-based.

For experiment [10] the target is unchanged. Kind of experiment: Inhibition of NLRP3 inflammasome activation in ICR mouse BMDM assessed as inhibition of LPS/nigericin-stimulated caspase-1 expression in cell supernatant at 1 uM treated for 3 hrs with LPS followed by incubation with compound for 1 hr and later stimulated with nigericin for 0.5 hrs by western blot analysis. Particulars: time 1.5 hrs. In kind it is cell-based.

Experiment [11] shares this target. Nature of the experiment: Inhibition of NLRP3 inflammasome priming in ICR mouse BMDM assessed as inhibition of pro-caspase-1 protein expression in cell lysate at 0.2 to 5 uM treated for 3 hrs with LPS followed by incubation with compound for 1 hr and later stimulated with ATP for 0.5 hrs by western blot analysis. In kind it is subcellular. Conditions: dose 0.2-5 µM, time 1.5 hrs.

Experiment [12] has the same target. Kind of experiment: Inhibition of NLRP3 inflammasome priming in ICR mouse BMDM assessed as inhibition of ASC protein expression in cell lysate at 0.2 to 5 uM treated for 3 hrs with LPS followed by incubation with compound for 1 hr and later stimulated with ATP for 0.5 hrs by western blot analysis. Conditions: dose 0.2-5 µM, time 1.5 hrs. In kind it is subcellular.

In experiment [13] the test system is Mus musculus. Kind of experiment: Anti-inflammatory activity against LPS-stimulated acute lung injury C57BL/6 mouse model assessed as decrease in IL-6 level in BALF at 0.1 to 1 mg/kg, ip treated for 3 days and on third day administered with LPS at 30 mins post-compound challenge and measured after 12 hrs by ELISA. It is filed as functional, organism-based. Particulars: dose 0.1-1 mg/kg, time 3.5 day.

For experiment [14], the target named is NACHT, LRR and PYD domains-containing protein 3 (Mus musculus) (UniProt Q8R4B8). Nature of the experiment: Inhibition of NLRP3 inflammasome priming in ICR mouse BMDM assessed as inhibition of pro-IL-1 beta expression in cell supernatant at 0.2 to 5 uM pretreated with compound for 1 hr followed by stimulation with LPS for 3 hrs and later incubated with ATP for 30 mins by western blot analysis. Conditions: dose 0.2-5 µM, time 4.5 hrs. In kind it is cell-based.

NACHT, LRR and PYD domains-containing protein 3 (Mus musculus), sequence (Q8R4B8 whole entry, the tested form may be a part): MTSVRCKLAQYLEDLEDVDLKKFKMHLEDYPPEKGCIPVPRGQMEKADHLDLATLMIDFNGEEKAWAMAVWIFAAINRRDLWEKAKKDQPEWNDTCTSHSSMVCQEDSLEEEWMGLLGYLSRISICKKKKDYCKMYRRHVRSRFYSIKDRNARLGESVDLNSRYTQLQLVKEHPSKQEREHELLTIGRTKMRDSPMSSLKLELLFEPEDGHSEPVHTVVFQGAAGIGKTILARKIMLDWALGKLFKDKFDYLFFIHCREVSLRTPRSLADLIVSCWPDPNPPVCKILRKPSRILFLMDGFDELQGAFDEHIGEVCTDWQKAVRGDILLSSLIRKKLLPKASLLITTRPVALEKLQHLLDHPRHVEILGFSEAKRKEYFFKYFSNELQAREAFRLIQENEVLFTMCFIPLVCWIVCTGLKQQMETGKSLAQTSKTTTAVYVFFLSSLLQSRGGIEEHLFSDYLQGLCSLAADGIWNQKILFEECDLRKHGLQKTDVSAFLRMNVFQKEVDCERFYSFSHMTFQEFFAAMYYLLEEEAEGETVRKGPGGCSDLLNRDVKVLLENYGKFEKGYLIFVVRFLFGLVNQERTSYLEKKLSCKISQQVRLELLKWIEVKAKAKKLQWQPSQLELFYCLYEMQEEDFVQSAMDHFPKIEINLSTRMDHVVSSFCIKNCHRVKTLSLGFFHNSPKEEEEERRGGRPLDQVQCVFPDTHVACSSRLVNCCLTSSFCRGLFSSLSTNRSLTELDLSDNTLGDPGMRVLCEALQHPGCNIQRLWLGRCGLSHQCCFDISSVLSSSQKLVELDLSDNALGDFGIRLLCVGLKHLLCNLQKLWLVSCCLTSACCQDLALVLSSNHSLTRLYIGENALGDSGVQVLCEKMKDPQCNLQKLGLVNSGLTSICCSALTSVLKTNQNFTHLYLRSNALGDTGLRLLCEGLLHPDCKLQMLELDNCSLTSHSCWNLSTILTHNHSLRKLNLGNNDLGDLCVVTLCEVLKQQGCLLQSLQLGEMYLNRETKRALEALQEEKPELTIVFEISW
NLR family CARD domain-containing protein 4 (Mus musculus), sequence (Q3UP24 whole entry, the tested form may be a part): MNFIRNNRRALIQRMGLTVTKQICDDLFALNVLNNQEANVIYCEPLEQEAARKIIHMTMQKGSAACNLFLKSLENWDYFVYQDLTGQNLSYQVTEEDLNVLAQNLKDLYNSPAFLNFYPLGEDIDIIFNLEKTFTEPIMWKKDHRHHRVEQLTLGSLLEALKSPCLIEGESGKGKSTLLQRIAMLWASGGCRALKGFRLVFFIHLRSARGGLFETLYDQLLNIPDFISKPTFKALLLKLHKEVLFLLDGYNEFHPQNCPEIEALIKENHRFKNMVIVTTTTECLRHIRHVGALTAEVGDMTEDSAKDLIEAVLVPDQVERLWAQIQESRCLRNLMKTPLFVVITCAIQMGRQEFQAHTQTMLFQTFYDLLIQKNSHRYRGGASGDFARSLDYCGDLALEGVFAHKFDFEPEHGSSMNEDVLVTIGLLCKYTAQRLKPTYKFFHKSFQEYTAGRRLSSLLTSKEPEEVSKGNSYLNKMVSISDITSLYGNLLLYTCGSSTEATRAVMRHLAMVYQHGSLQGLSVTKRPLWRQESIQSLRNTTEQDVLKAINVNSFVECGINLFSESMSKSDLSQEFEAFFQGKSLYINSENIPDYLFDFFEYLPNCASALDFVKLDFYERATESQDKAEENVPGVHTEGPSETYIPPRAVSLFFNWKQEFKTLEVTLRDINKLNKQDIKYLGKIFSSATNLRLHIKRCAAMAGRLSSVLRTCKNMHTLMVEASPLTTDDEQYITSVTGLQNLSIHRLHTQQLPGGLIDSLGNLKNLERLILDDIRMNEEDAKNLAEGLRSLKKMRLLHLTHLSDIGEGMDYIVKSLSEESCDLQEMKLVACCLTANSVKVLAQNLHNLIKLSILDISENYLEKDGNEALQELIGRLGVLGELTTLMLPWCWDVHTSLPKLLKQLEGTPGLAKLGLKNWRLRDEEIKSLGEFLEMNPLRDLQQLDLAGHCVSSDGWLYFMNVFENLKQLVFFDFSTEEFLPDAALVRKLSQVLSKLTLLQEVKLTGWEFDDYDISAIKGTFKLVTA

As for `C=C1C(=O)[C@]23[C@H](OC(=O)Nc4ccc(F)cc4)[C@H]1CC[C@H]2[C@]12C=CCC(C)(C)[C@H]1[C@H](O)[C@@]3(O)OC2`, the inhibition entry in experiment [1], in [3], in [4], in [11], in [12] and in experiment [14] was “inactive” throughout. For the same molecule, the Activity result with Mus musculus [2] and in the experiment with Mus musculus [13] was “Dose-Dependent Effect” in each case. The inhibition entry in experiment [5], in [7] and in experiment [10] was “Active” throughout. Moreover, the result in the experiment with Mus musculus [6] and with Mus musculus [8] was Active. Moreover, the inhibition result in experiment [9] was “Dose-Dependent Effect”.
